Test results: ChEMBL document CHEMBL1201862, “PubChem BioAssay data set” (2004)
The source made the active and inactive calls.

What was measured:
[1] = potency of ADAM10 substrate cleavage blockers – biochemical, QFRET, dose response (AID 743254);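 also: ADAM10 enzyme with the DM2 quenched FRET peptide as substrate; EDANS fluorescence gain as the protease cuts the substrate; inhibitor potency against ADAM10 proteolytic activity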
[2] = target: Disintegrin and metalloproteinase domain-containing protein 17 (Homo sapiens, UniProt P78536); test: inhibition of ADAM17 substrate cleavage – biochemical, quenched FRET substrate, counter-screen for ADAM10 exosite inhibitor project, dose response (AID 743253)
[3] = Luminescence Cell-Based Dose Response to Identify Activators of Luciferase Translation or Activity in H4-C Neuroglioblastoma Cells. [Related pubchem assays: 1829 (Project Summary), 1814 (Primary HTS)]; assay type: functional
[4] = Luminescence Cell-Based Dose Response HTS to Identify Activators of Luciferase Translation or Activity in H4 […] Cells. [Related pubchem assays: 1829 (Project Summary), 1814 (Primary HTS)]; assay type: functional
HeLa = test: ATP-based viability loss in HeLa cells – cell-based, CellTiter-Glo luminescence, cherry-pick samples, cytotoxicity control for MITF activator project, dose response (AID 540259); assay type: functional; conditions: Homo sapiens
[5] = Luminescence Cell-Based Dose Response to Identify Activators of 5'UTR Stem-Loop Driven Prion Protein mRNA Translation in H4-C Neuroglioblastoma Cells. [Related pubchem assays: 1829 (Project Summary), 1814 (Primary HTS)]; assay type: functional
H4 = test: Luminescence Cell-Based Dose Response HTS to Identify Activators of 5'UTR Stem-Loop Driven Prion Protein mRNA Translation in H4 Neuroglioblastoma Cells. [Related pubchem assays: 1829 (Project Summary), 1814 (Primary HTS)]; assay type: functional; conditions: Homo sapiens
[6] = Luminescence Cell-Based Dose Confirmation to Identify Activators of 5'UTR Stem-Loop Driven Alpha-Synuclein mRNA Translation in H4 Neuroglioblastoma Cells. [Related pubchem assays: 1829 (Project Summary), 1814 (Primary HTS)]; assay type: functional
[7] = Luminescence-based cell-based high throughput dose response assay to identify activators of the DAF-12 from the parasite S. stercoralis (ssDAF-12).; assay type: functional
[8] = target: T1, Oxysterols receptor LXR-beta (Homo sapiens, UniProt P55055); test: LXR agonists, Gal4 luciferase reporter, dose response, counter-screen for ssDAF-12 agonist project, cell-based, luminescence, HEK293, S. stercoralis campaign (AID 720737); assay type: functional; conditions: read-out: IC50 (the source's name)
T1 sequence (P55055 whole entry): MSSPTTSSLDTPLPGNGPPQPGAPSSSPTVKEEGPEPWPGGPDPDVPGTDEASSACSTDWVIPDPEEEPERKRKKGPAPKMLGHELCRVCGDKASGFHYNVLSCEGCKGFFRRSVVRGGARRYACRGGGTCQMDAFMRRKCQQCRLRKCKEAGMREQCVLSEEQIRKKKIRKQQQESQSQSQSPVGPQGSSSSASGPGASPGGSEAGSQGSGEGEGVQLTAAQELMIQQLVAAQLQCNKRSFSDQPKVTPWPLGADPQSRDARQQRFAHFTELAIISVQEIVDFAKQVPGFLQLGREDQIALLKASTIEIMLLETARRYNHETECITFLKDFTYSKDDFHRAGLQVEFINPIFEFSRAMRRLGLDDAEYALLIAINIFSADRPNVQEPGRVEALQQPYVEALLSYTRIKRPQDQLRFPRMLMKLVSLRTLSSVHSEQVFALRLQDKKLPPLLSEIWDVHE

[9] = viability loss in Vero cells – cytotoxicity control for Vif-APOBEC3G degradation inhibitor project, dose response (AID 1117358); assay type: functional; conditions: Vero
[10] = Trypanosoma cruzi growth suppression in host cells – NIH3T3 host cells, beta-gal luminescence, confirmation (AID 2044); assay type: functional, cell-based;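 also: intracellular parasites grown in NIH/3T3 mouse fibroblasts as host cells; luminescent beta-galactosidase reporter signal from transgenic T. cruzi replicating inside host cells; inhibitors lower the luminescence signal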
[11] = NIH3T3 cell viability loss – ATP luminescence, mouse fibroblasts, counter-screen, dose response (AID 2010); assay type: functional, cell-based;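 also: cells exposed to compound for about 90 hours before reading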
[12] = blockers of bursicon-stimulated LGR2 cAMP reporter – cell-based, HEK293, CRE-luciferase reporter, cherry pick, set 2, dose response (AID 743343); assay type: functional;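 also: transfected cells were stimulated with diluted bursicon conditioned medium after compound addition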
[13] = off-target signal loss in HeLa-CEM21 co-culture – HeLa F-luc CTL cells, cherry-picked, counter-screen for HIV-1 Env fusion inhibitor project, dose response (AID 652040); assay type: functional, cell-based;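 also: potency for signal decrease marking cytotoxic or nonspecific inhibition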
[14] = HIV-1 AD8 envelope cell-cell fusion blockers – cherry-pick, dose response (AID 652062); assay type: functional, cell-based;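 also: luciferase signal from cell-cell fusion driven by HIV-1 clade B AD8 Env; potency is for inhibitors of fusion seen as a drop in luminescence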
[15] = blockers of HIV-1 envelope-mediated cell-cell fusion – cherry-pick, dose response (AID 652057); assay type: functional, cell-based
[16] = blockade of melanocortin 4 receptor signaling – cell-based, plate reader, cherry pick, counter-screen for LGR2 antagonist project, dose response (AID 743444); assay type: functional;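 also: transfected HEK 293 cells stimulated with alpha-MSH peptide; potency of inhibitors of the alpha-MSH evoked signal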
[17] = target: T2, Sentrin-specific protease 8 (Homo sapiens, UniProt Q96LD8); assay type: functional
T2 sequence (Q96LD8 whole entry): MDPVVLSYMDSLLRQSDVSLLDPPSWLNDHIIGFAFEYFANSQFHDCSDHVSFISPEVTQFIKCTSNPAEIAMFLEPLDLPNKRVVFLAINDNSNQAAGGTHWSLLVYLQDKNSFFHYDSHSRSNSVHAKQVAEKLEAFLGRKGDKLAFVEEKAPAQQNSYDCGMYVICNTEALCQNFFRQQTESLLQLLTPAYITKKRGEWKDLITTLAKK

[18] = target: T2, Sentrin-specific protease 8; assay type: functional; remark: listed apart in the source
Caspase-6 = target: T3, Caspase-6 (Homo sapiens, UniProt P55212); test: inhibition of CASP6 peptide cleavage – biochemical, VEID-R110 fluorescence, cherry-pick, dose response (AID 720632)
T3 sequence (P55212 whole entry): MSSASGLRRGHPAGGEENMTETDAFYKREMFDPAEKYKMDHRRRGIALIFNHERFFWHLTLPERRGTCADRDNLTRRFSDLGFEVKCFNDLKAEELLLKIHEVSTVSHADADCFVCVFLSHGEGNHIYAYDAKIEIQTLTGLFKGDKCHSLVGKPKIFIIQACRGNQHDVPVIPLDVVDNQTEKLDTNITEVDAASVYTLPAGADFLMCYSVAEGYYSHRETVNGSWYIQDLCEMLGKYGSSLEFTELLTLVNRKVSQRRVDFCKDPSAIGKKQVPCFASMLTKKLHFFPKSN

Sequence of Disintegrin and metalloproteinase domain-containing protein 17 (P78536 whole entry, the tested form may be a part): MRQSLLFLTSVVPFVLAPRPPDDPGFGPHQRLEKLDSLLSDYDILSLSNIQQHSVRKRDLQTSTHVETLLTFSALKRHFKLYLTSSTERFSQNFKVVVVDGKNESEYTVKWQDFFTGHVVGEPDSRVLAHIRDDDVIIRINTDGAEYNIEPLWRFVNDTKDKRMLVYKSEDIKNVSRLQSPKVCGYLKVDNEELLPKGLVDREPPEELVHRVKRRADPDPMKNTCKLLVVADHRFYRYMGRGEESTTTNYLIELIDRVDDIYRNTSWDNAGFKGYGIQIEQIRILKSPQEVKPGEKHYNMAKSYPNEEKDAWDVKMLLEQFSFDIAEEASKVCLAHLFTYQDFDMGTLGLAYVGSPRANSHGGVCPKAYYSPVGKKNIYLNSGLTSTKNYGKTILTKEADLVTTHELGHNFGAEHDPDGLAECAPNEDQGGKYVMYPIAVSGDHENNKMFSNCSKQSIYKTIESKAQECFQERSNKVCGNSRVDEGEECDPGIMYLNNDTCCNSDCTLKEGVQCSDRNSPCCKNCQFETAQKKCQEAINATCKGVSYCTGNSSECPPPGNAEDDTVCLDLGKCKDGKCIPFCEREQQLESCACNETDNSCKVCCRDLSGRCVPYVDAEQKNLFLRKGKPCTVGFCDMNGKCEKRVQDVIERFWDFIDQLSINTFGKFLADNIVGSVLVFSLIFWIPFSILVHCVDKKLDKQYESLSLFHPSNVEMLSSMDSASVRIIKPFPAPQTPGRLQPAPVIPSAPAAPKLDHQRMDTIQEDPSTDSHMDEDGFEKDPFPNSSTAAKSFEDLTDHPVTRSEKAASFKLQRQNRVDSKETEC

For Cc1ccc(Nc2nc(N)nc(CSc3nc4ccccc4s3)n2)cc1, the IC50 [1] was > 7.72 µM (active) and the IC50 [2] was > 69.5 µM (inactive).
With Clc1ccc(-c2cn3c(n2)CCC3)cc1 the EC50 [3] was 0.299 µM (active), the EC50 [4] was < 0.1 µM (active) and the AC50 (HeLa) was 173 µM (active). For the same compound, the EC50 [5] was 0.397 µM (active), the EC50 (H4) was > 120 µM (not active) and the EC50 [6] was 0.319 µM (active).
With CC1CCC(NC(=O)c2ccc(S(C)(=O)=O)cc2)CC1 (stereo not drawn) the IC50 [7] was > 67.5 µM (inactive) and the EC50 [8] was > 67.5 µM (inactive).
With COc1ccc(CCNC(=O)CSc2nc(-c3ccco3)cc(C(F)(F)F)n2)cc1 the CC50 [9] was > 40 µM (active).
In the case of Cc1ccc(C(=O)Nc2ccccc2-c2ccccc2)cc1S(=O)(=O)Nc1cccc(C)c1C, the EC50 [10] is reported as 1.57 µM (active), the IC50 [1] is reported as > 69.5 µM (inactive) and the EC50 [11] is reported as > 60 µM (not active). For the same compound, the IC50 [2] was > 69.5 µM (inactive).
For Cc1cc(C(=O)CN2C(=O)c3ccccc3S2(=O)=O)c(C)n1C(C)C, the AC50 [12] was 2.48 µM (active), the AC50 [13] was 3.75 µM (active) and the AC50 [14] was 7.58 µM (active). The AC50 [15] was 3.93 µM (active) and the AC50 [16] was 2.08 µM (active).
For CC1Cc2ccccc2N1C(=O)COC(=O)c1ccc([N+](=O)[O-])o1 (stereo not drawn), the IC50 [17] was 3.78 µM (active), the IC50 [18] was 8.67 µM (active) and the AC50 (Caspase-6) was 13 µM (active).
